In publication PMC11347150, “Aurora: a fluorescent deoxyribozyme for high-throughput screening” (Nucleic Acids Research, 2024):

How the values were obtained:
Nsp15 = Nsp15 (Severe acute respiratory syndrome coronavirus 2, UniProt P0DTD1); conditions: 1 mM ZnCl2, negative control wells
Description: Small molecules from a 1000-member fragment screen library (Maybridge) were transferred to the wells of 384-well plates using an Echo 550 liquid handler. Nsp15 protein in 1 × Nsp15 buffer (50 mM KCl, 20 mM HEPES pH 7.4, 5 mM MnCl2, 0.003% (v/v) Tween20) was then added using a CERTUS Flex liquid handler. After mixing, the Aurora Nsp15 sensor (in 1 × Nsp15 buffer) was added using a CERTUS Flex liquid handler. Reactions were mixed again. Final concentrations were 25 μM Aurora Nsp15 sensor, 400 nM Nsp15 protein, 1 × Nsp15 buffer (50 mM KCl, 20 mM HEPES pH 7.4 and 5 mM MnCl2), 0.003% (v/v) Tween20, and 200 μM small molecule from the fragment screen library in a volume of 20 μl. […] The reaction mixture was incubated at room temperature for 4 h, and fluorescence was measured using a Tecan Spark plate reader. Fluorescence was measured in a black flat bottom 384-well plate (Corning).
The average value of this background was subtracted from the fluorescence values obtained from all other wells. […] Activity of Nsp15 in the presence of small molecules from the fragment screen library was calculated relative to this positive control value. Z-factors ([22]) were calculated for each 384-well plate to determine the quality of the screen. […]

[1] = set-up: method as in PMID 9873685, PMID 18355003; conditions: pH 10; cited from earlier work

Row | SMILES | inhibition of Nsp15 (Nsp15) | Brightness (ϵ × Φ) [1] | Extinction coefficient (ϵ) [1] | Maximum emission wavelength (λem) [1] [nm] | Maximum excitation wavelength (λmax) [1] [nm] | Quantum yield (Φ) [1]
1 | [Cl-].[Cl-].[Zn+2] [ZnCl2] | inhibited Nsp15 |  |  |  |  | 
2 | Cc1cc(=O)oc2cc(O)ccc12 [4-MU] |  | 10 710 M^−1 cm^−1 | 17 000 M^−1 cm^−1 | 450 | 360 | 0.63
